Measured values published in patent US5973116A, “Compounds for targeting” (Imperial Cancer Research Technology Limited, priority 1993, dated 1999).
Read-outs that look alike come from different tables or passages of the source.

Experiments:
[1] = test system: pRAS111 ScFvNP protein (VHNP (G4S)3 VλJ558L, SEQ ID No 3); assay: ELISA-based affinity determinations of pRAS111 ScFvNP protein (methods of Mariani et al 1987 and Hogg et al 1987); format: binding, mouse; settings: for Kd: antigen coat
Text: Affinity of pRAS111 ScFv for NIP was estimated firstly by adapting the method of Mariani et al (1987) Molec. Immunol. […] This approximation only holds true if the number of available binding sites per well is sufficiently low that their contribution is insignificant. Determinations of Kapp should approach Kactual as the amount of antigen per well is reduced.
To confirm the accuracy of this approach, similar estimations of K were made using the method of Hogg et al (1987) Molec. Immunol. 24, 797-801) in the absence of competing antigen, by calculating the slope of the linear portion of a plot of A450 /[ScFvNP ] v A450, where A450 /[ScFvNP ]=fKn-fK(A450), A450 is the absorbance at 450 nm, [ScFvNP ] is the concentration of added ScFvNP, n is the concentration of available binding sites and f is the valency of the ScFvNP for NIP. A value of 1 was assigned to f.

[2] = molecular target: ScFv encoded by pRAS111 (ScFvNP, VHNP (G4S)3 VλJ558L, SEQ ID No 3); assay: ELISA binding and competition of pRAS111 ScFv on a NIP15-BSA coat; parameters: species or system mouse; settings: read-out: binding affinity for NP, Kd
Procedure: Filtered bacterial supernatants were applied to wells of a 96-well plate previously coated with […] NIP15 -BSA or […] egg lysozyme, and bound protein was detected by serial incubation with biotinylated Gαmλ antiserum and HRPO-streptavidin conjugate. Colour changes were generated by incubation with ABTS and were monitored at 405 nm.
A soluble protein present in the growth medium of JM109 (DE3)/pRAS111 cultures, but not in cultures of JM109 (DE3), binds NIP15 -BSA, but not lysozyme (FIG. 5). Filtered bacterial growth medium recovered after induction of pRAS111 protein was applied to wells of an ELISA plate coated with 10 μg.ml^-1 NIP15 -BSA (.circle-w/dot.) or 300 μg.ml^-1 hen egg lysozyme (.diamond-solid.). Bound protein was detected by serial incubation with biotinylated Gαmλ (Goat anti-mouse lambda light chain) antisera and horseradish peroxidase conjugated streptavidin diluted in blocking buffer, and colour changes generated by addition of ABTS were monitored at 405 nm. A soluble protein present in the growth medium of JM109(DE3)/pRAS111 cultures, but not in cultures of JM109(DE3), binds NIP15 -BSA, can be competed with NIP15 -BSA (FIG. 6). […] Bound protein was detected by serial incubation with biotinylated Gαmλ antisera and horseradish peroxidase conjugated streptavidin, and colour changes generated by addition of ABTS were monitored at 405 nm.

[3] = concn 5 mg ml^-1 of coating buffer, no competing antigen, f = 1, read-out: K, Hogg et al (1987) (converted)
[4] = concn 5 mg ml^-1 of coating buffer, read-out: K, Mariani et al (1987) (converted)

O=C(O)Cc1cc(I)c(O)c([N+](=O)[O-])c1 [NIP, 4-hydroxy-3-iodo-5-nitrophenylacetic acid] was tested, and the “Kapp, affinity for NIP (K)” value ([1]; method of Mariani et al (1987), Ct50 = 1/Kapp, at low amount of antigen per well) was 2-3×10^8 M^-1.
O=C(O)Cc1ccc(O)c([N+](=O)[O-])c1 [NP, 4-hydroxy-3-nitrophenylacetic acid] was tested, and the Kd [2] was 4 nM.
“NIP4 BSA: low coupling ratio NIP-BSA, 3.7 haptens per protein molecule” showed a Kd [1, 3] of 5.56 nM, a Kd [1, 4] of 4 nM and a Kd ([1]; concn 10 mg ml^-1 of coating buffer, no competing antigen, f = 1, read-out: K, Hogg et al (1987) (converted)) of 8.33 nM. The Kd ([1]; concn 10 mg ml^-1 of coating buffer, read-out: K, Mariani et al (1987) (converted)) was 3.45 nM.
In the case of “NIP16 BSA: high coupling ratio NIP-BSA, 16.4 haptens per protein molecule”, the Kd ([1]; concn 1 mg ml^-1 of coating buffer, no competing antigen, f = 1, read-out: K, Hogg et al (1987) (converted)) is reported as 1.23 nM, the Kd ([1]; concn 1 mg ml^-1 of coating buffer, read-out: K, Mariani et al (1987) (converted)) is reported as 1.22 nM and the Kd [1, 3] is reported as 0.625 nM. The Kd [1, 4] was 0.4 nM.
With “NIP conjugated to BSA: hapten NIP coupled to BSA via NIP-cap-OSu” the “affinity for NIP conjugated to BSA” value ([1]; pH 7.4) was 1-3×10^8 M^-1.
